Assay results as given in patent US8183234B2, “Tricyclic guanidine derivatives as sodium-proton exchange inhibitors” (Piramal Life Sciences Limited, priority 2004, dated 2012).
Structures can show the parent of a compound that is named as a salt.

melting point | Structure (SMILES)
292 to 294 °C | Cc1cc2c(cc1C(=O)N=C(N)N)S(=O)(=O)Cc1ccccc1N2 (as salt: sulfonic acid salt) [Example 183, N-(7-Methyl-10,10-dioxo-10,11-dihydro-5H-10lambda*6*-thia-5-aza-dibenzo[a.d]cycloheptene-8-carbonyl)-guanidine, methane sulfonic acid salt]
230 to 232 °C | CS(=O)(=O)O.CS(=O)(=O)O.CS(=O)(=O)O.Cc1ccc(CNc2cc(Cl)c3c(c2)CS(=O)(=O)c2cc(C(=O)NC(=N)N)cc(C)c2O3)s1 [Example 164, N-{4-Chloro-6-methyl-2-[(5-methyl-thiophen-2-ylmethyl)-amino]-10,10-dioxo-10,11-dihydro-5-oxa-10lambda*6*-thia-dibenzo[a,d]cycloheptene-8-carbonyl}-guanidine trimesylate]
242 to 244 °C | Cc1cc(C(=O)N=C(N)N)cc2c1Oc1c(Cl)cc(CN)cc1CS2(=O)=O (as salt: mesylate) [Example 198, N-(2-Aminomethyl-4-chloro-6-methyl-10,10-dioxo-10,11-dihydro-5-oxa-10lambda*6*-thia-dibenzo[a.d]cycloheptene-8-carbonyl)-guanidine trimesylate]
214 to 215 °C | CS(=O)(=O)O.CS(=O)(=O)O.CS(=O)(=O)O.Cc1cc(C(=O)NC(=N)N)cc2c1Oc1c(Cl)cc(N3CCN(Cc4cccc(N)c4)CC3)cc1CS2(=O)=O [Example 127, N-{2-[4-(3-Amino-benzyl)-piperazin-1-yl]-4-chloro-6-methyl-10,10-dioxo-10,11-dihydro-5-oxa-10lambda*6*-thia-dibenzo[a,d]cycloheptene-8-carbonyl}-guanidine trimesylate]
238 °C | CS(=O)(=O)O.CS(=O)(=O)O.Cc1cc(C(=O)NC(=N)N)cc2c1Oc1c(Cl)cc(NCc3cccnc3)cc1CS2(=O)=O [Example 165, N-{4-Chloro-6-methyl-10,10-dioxo-2-[(pyridin-3-ylmethyl)-amino]-10,11-dihydro-5-oxa-10lambda*6*-thia-dibenzo[a,d]cycloheptene-8-carbonyl}-guanidine dimesylate]
180 to 182 °C | CS(=O)(=O)O.Cc1cc(C(=O)NC(=N)N)cc2c1Oc1c(Cl)cc(NC(=O)CO)cc1CS2(=O)=O [Example 136, N-(4-Chloro-8-guanidinocarbonyl-6-methyl-10,10-dioxo-10,11-dihydro-5-oxa-10lambda*6*-thia-dibenzo[a,d]cycloheptene-2-yl)-2-hydroxy-acetamide methane sulfonic acid salt]
182 to 184 °C | CS(=O)(=O)O.CS(=O)(=O)O.CS(=O)(=O)O.CS(=O)(=O)O.Cc1cc(C(=O)NC(=N)N)cc2c1Oc1c(Cl)cc(N3CCN(CCN4CCNCC4)CC3)cc1CS2(=O)=O [Example 124, N-{4-Chloro-6-methyl-10,10-dioxo-2-[4-(2-piperazin-1-yl-ethyl)-piperazin-1-yl)-10,11-dihydro-5-oxa-10lambda*6*-thia-dibenzo[a,d]cycloheptene-8-carbonyl}-guanidine tetramesylate]
280 to 285 °C | Cc1cc(C(=O)N=C(N)N)cc2c1Oc1c(Cl)cc(N3CCN(Cc4ccccc4)CC3)cc1CS2(=O)=O (as salt: mesylate) [Example 118, N-[2-(4-Benzyl-piperazin-1-yl)-4-chloro-6-methyl-10,10-dioxo-10,11-dihydro-5-oxa-10lambda*6*-thia-dibenzo[a,d]cycloheptene-8-carbonyl]-guanidine dimesylate]
275 to 277 °C | CS(=O)(=O)O.CS(=O)(=O)O.Cc1cc(C(=O)NC(=N)N)cc2c1Oc1c(Cl)cc(N3CCN(C4CCC4)CC3)cc1CS2(=O)=O [Example 129, N-[4-Chloro-2-(4-cyclobutyl-piperazin-1-yl)-6-methyl-10,10-dioxo-10,11-dihydro-5-oxa-10lambda*6*-thia-dibenzo[a,d]cycloheptene-8-carbonyl]-guanidine dimesylate]

Continued, molecule first:

Structure (SMILES) | melting point
CS(=O)(=O)O.CS(=O)(=O)O.Cc1cc(C(=O)NC(=N)N)cc2c1Oc1c(Cl)cc(N(CCN(C)C)C(=O)C(C)(C)C)cc1CS2(=O)=O [Example 101, N-(4-Chloro-8-guanidinocarbonyl-6-methyl-10,10-dioxo-10,11-dihydro-5-oxa-10lambda*6*-thia-dibenzo[a,d]cyclohepten-2-yl)-N-(2-dimethylamino-ethyl)-2,2-dimethyl-propionamide dimesylate] | 171 to 173 °C
CS(=O)(=O)O.CS(=O)(=O)O.Cc1cc(C(=O)NC(=N)N)cc2c1Oc1c(Cl)cc(NCCNCCN3CCOCC3)cc1CS2(=O)=O [Example 79, N-{4-Chloro-6-methyl-2-[2-(2-morpholin-4-yl-ethylamino)-ethylamino]-10,10-dioxo-10,11-dihydro-5-oxa-10lambda*6*-thia-dibenzo[a,d]cycloheptene-8-carbonyl}-guanidine dimesylate] | 255 to 256 °C
CCCCCCCCCCN1CCN(c2cc(Cl)c3c(c2)CS(=O)(=O)c2cc(C(=O)NC(=N)N)cc(C)c2O3)CC1.CS(=O)(=O)O.CS(=O)(=O)O [Example 105, N-[4-Chloro-2-(4-decyl-piperazin-1-yl)-6-methyl-10,10-dioxo-10,11-dihydro-5-oxa-10lambda*6*-thia-dibenzo[a,d]cycloheptene-8-carbonyl]-guanidine dimesylate] | 184 to 185 °C
CS(=O)(=O)O.CS(=O)(=O)O.Cc1cc(C(=O)NC(=N)N)cc2c1Oc1c(Cl)cc(N3CCN(C(C)C)CC3=O)cc1CS2(=O)=O [Example 60, N-[4-Chloro-2-(4-isopropyl-2-oxo-piperazin-1-yl)-6-methyl-10,10-dioxo-10,11-dihydro-5-oxa-10lambda*6*-thia-dibenzo[a,d]cycloheptene-8-carbonyl]-guanidine dimesylate] | 196 to 198 °C
CCN(CCN(CC)c1cc(Cl)c2c(c1)CS(=O)(=O)c1cc(C(=O)NC(=N)N)cc(C)c1O2)Cc1cccs1.CS(=O)(=O)O.CS(=O)(=O)O [Example 87, N-(4-Chloro-2-{ethyl-[2-(ethyl-thiophen-2-ylmethyl-amino)-ethyl]-amino}-6-methyl-10,10-dioxo-10,11-dihydro-5-oxa-10lambda*6*-thia-dibenzo[a,d]cycloheptene-8-carbonyl)-guanidine dimesylate] | 156 to 158 °C
NC(N)=NC(=O)c1cc(Cl)c2c(c1)S(=O)(=O)Cc1cccc(Cl)c1O2 (as salt: sulfonic acid salt) [Example 45, 4,6-Dichloro-10,10-dioxo-10,11-dihydro-5-oxa-10lambda*6*-thia-dibenzo[a,d]cycloheptene-8-carbonylguanidine, methane sulfonic acid salt] | 270 to 271 °C
CNCCNc1cc(Cl)c2c(c1)CS(=O)(=O)c1cc(C(=O)NC(=N)N)cc(C)c1O2.CS(=O)(=O)O.CS(=O)(=O)O [Example 71, N-[4-Chloro-6-methyl-2-(2-methylamino-ethylamino)-10,10-dioxo-10,11-dihydro-5-oxa-10lambda*6*-thia-dibenzo[a,d]cycloheptene-8-carbonyl)-guanidine dimesylate] | 250 to 251 °C
CS(=O)(=O)O.CS(=O)(=O)O.CS(=O)(=O)O.Cc1cc(C(=O)NC(=N)N)cc2c1Oc1c(Cl)cc(N3CCNCC3)cc1CS2(=O)=O [Example 104, N-(4-Chloro-6-methyl-10,10-dioxo-2-piperazin-1-yl-10,11-dihydro-5-oxa-10lambda*6*-thia-dibenzo[a,d]cycloheptene-8-carbonyl)-guanidine trimesylate] | 203 to 205 °C
CC(=O)N(CCN(C)C)c1cc(Cl)c2c(c1)CS(=O)(=O)c1cc(C(=O)NC(=N)N)cc(C)c1O2.CS(=O)(=O)O.CS(=O)(=O)O.CS(=O)(=O)O [Example 100, N-(4-Chloro-8-guanidinocarbonyl-6-methyl-10,10-dioxo-10,11-dihydro-5-oxa-10lambda*6*-thia-dibenzo[a,d]cyclohepten-2-yl)-N-(2-dimethylamino-ethyl)-acetamide trimesylate] | 128 to 130 °C
CC(=O)N(CCN1CCOCC1)c1cc(Cl)c2c(c1)CS(=O)(=O)c1cc(C(=O)NC(=N)N)cc(C)c1O2.CS(=O)(=O)O.CS(=O)(=O)O [Example 68, N-(4-Chloro-8-guanidinocarbonyl-6-methyl-10,10-dioxo-10,11-dihydro-5-oxa-10lambda*6*-thia-dibenzo[a,d]cyclohepten-2-yl)-N-(2-morpholin-4-yl-ethyl)-acetamide dimesylate] | 198 to 200 °C
COCC(=O)N(CCN1CCOCC1)c1cc(Cl)c2c(c1)CS(=O)(=O)c1cc(C(=O)NC(=N)N)cc(C)c1O2.CS(=O)(=O)O.CS(=O)(=O)O [Example 69, N-(4-Chloro-8-guanidinocarbonyl-6-methyl-10,10-dioxo-10,11-dihydro-5-oxa-10lambda*6*-thia-dibenzo[a,d]cyclohepten-2-yl)-2-methoxy-N-(2-morpholin-4-yl-ethyl)-acetamide dimesylate] | 168 to 169 °C
CS(=O)(=O)O.CS(=O)(=O)O.CS(=O)(=O)O.Cc1cc(C(=O)NC(=N)N)cc2c1Oc1c(Cl)cc(NCCN3CCN(C)CC3)cc1CS2(=O)=O [Example 62, N-{4-Chloro-6-methyl-2-[2-(4-methylpiperazin-1-yl)-ethylamino]-10,10-dioxo-10,11-dihydro-5-oxa-10lambda*6*-thia-dibenzo[a,d]cycloheptene-8-carbonyl}-guanidine trimesylate] | 184 to 186 °C
CCN(CCN1CCCC1)c1cc(Cl)c2c(c1)CS(=O)(=O)c1cc(C(=O)N=C(N)N)cc(C)c1O2 (as salt: mesylate) [Example 73, N-{4-Chloro-2-[ethyl-(2-pyrrolidin-1-yl-ethyl)-amino]-6-methyl-10,10-dioxo-10,11-dihydro-5-oxa-10lambda*6*-thia-dibenzo[a,d]cycloheptene-8-carbonyl}-guanidine dimesylate] | 258 to 260 °C
Cc1cc(C(=O)N=C(N)N)cc2c1Oc1c(Cl)cc(S(=O)(=O)NCc3cccnc3)cc1CS2(=O)=O (as salt: mesylate) [Example 52, 4-Chloro-8-guanidinocarbonyl-6-methyl-10,10-dioxo-10,11-dihydro-5-oxa-10lambda*6*-thia-dibenzo[a,d]cycloheptene-2-sulfonic acid (pyridin-3-ylmethyl)-amide dimesylate] | 271 to 273 °C
